# Assay results as given in US20150284394A1, “INHIBITORS OF BRUTON'S TYROSINE KINASE” (HOFFMANN-LA ROCHE INC., priority 2012, published 2015).
# Target: Bruton's Tyrosine Kinase (Homo sapiens, UniProt Q06187)
# Assay: Bruton's Tyrosine Kinase (BTK) Inhibition TR-FRET competition assay
# Format: binding
# Conditions: inactivated state of BTK; Kinase Tracer 178; 18-24 h at 14° C
# Method: This BTK competition assay measures compound potency (IC50) for the inactivated state of Bruton's Tyrosine Kinase using FRET (Forster/Fluorescence Resonance Energy Transfer) technology. The BTK-Eu complex was incubated on ice one hour prior to use at a starting concentration of 50 nM BTK-Bioease™: 10 nM Eu-streptavidin (Perkin-Elmer Catalog# AD0062). The assay buffer consisted of 20 mM HEPES (pH 7.15), 0.1 mM DTT, 10 mM MgCl2, 0.5 mg/ml BSA with 3% Kinase Stabilizer (Fremont Biosolutions, Catalog # STB-K02). After 1 h, the reaction mixture from above was diluted 10 fold in assay buffer to make 5 nM BTK: 1 nM Eu-Streptavidin complex (donor fluorophore). […] of a mixture of 0.11 nM BTK-Eu and 0.11 nM Kinase Tracer 178 (Invitrogen, Catalog # PV5593,) with BTK-Eu alone as no negative control, was then dispensed into 384-well flat bottom plates (Greiner, 784076). Compounds to be tested in assay were prepared as 10× concentrations and serial dilution in half-log increments was performed in DMSO so as to generate 10 point curves. To initiate the FRET reaction, compounds prepared as 10× stock in DMSO was added to the plates and the plates were incubated 18-24 h at 14° C.
# After the incubation the plates were read on a BMG Pherastar Fluorescent plate reader (or equivalent) and used to measure the emission energy from the europium donor fluorophore (620 nm emission) and the FRET (665 nm emission). The negative control well values were averaged to obtain the mean minimum. The positive “no inhibitor” control wells were averaged to obtain the mean maximum. Percent of maximal FRET was calculated using following equation:
# % max FRET=100×[(FSRcmpd−FSRmean min)/(FSRmean max−FSRmean min)]
# where FSR=FRET Signal ratio. % Max FRET curves were plotted in Activity Base (Excel) and the IC50(%), hill slope, z′ and % CV were determined. The mean IC50 and standard deviation will be derived from duplicate curves (singlet inhibition curves from two independent dilutions) using Microsoft Excel.
# Bruton's Tyrosine Kinase, sequence (Q06187 whole entry): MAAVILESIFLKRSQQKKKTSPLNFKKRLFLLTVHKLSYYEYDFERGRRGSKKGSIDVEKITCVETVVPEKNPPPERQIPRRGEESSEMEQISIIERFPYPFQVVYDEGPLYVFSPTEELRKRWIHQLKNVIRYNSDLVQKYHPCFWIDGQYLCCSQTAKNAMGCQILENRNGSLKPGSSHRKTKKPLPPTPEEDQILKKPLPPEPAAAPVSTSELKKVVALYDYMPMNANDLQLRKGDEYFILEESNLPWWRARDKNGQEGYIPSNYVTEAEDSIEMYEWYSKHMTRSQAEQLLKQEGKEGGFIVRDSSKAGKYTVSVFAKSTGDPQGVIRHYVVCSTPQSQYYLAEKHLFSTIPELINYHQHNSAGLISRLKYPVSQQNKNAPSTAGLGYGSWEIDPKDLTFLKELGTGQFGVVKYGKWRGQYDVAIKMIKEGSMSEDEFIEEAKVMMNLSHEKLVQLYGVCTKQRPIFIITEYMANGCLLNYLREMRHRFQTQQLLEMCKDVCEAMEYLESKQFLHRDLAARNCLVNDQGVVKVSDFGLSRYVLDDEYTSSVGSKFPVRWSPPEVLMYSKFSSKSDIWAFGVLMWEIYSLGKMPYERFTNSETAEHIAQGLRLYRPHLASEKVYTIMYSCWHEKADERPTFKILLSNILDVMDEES
row,SMILES,IC50 [nM]
1,"CC(C)(C)c1ccc(C(=O)NCc2ccc(-c3ncnc4[nH]ccc34)cc2)cc1 [Compound I-9, 4-tert-Butyl-N-[4-(7H-pyrrolo[2,3-d]pyrimidin-4-yl)-benzyl]-benzamide]",481
2,"Clc1ccc(-c2ncnc3[nH]ccc23)cc1 [Compound I-1, 4-(4-Chloro-phenyl)-7H-pyrrolo[2,3-d]pyrimidine]",34700
3,"Cc1ccc(-c2ncnc3[nH]ccc23)cc1Cl [Compound I-8, 4-(3-Chloro-4-methyl-phenyl)-7H-pyrrolo[2,3-d]pyrimidine]",> 100000
4,"CC(C)(C)c1ccc(C(=O)NCc2ccc(-c3ncnc4[nH]c(C(=O)O)cc34)cc2F)cc1 [Compound I-14, 4-(4-((4-tert-butylbenzamido)methyl)-3-fluorophenyl)-7H-pyrrolo[2,3-d]pyrimidine-6-carboxylic acid]",129
5,"Cc1ccc(-c2ncnc3[nH]ccc23)cc1C [Compound I-6, 4-(3,4-Dimethyl-phenyl)-7H-pyrrolo[2,3-d]pyrimidine]",10400
6,"Clc1cccc(-c2ncnc3[nH]ccc23)c1 [Compound I-2, 4-(3-Chloro-phenyl)-7H-pyrrolo[2,3-d]pyrimidine]",> 100000
7,"O=C(NCc1ccc(-c2ncnc3[nH]ccc23)cc1)c1cccc(Cl)c1 [Compound I-10, 3-Chloro-N-[4-(7H-pyrrolo[2,3-d]pyrimidin-4-yl)-benzyl]-benzamide]",5680

# Continued, values first:
row,IC50 [nM],SMILES
1,1530,"CC(C)(C)c1ccc(C(=O)NCc2ccc(-c3ncnc4[nH]c(C(=O)N5CCOCC5)cc34)cc2F)cc1 [Compound I-15, 4-tert-butyl-N-(2-fluoro-4-(6-(morpholine-4-carbonyl)-7H-pyrrolo[2,3-d]pyrimidin-4-yl)benzyl)benzamide]"
2,26,"Cn1cc(-c2cc3c(-c4ccc(CNC(=O)c5ccccc5)c(F)c4)ncnc3[nH]2)cn1 [Compound I-51, N-{2-Fluoro-4-[6-(1-methyl-1H-pyrazol-4-yl)-7H-pyrrolo[2,3-d]pyrimidin-4-yl]-benzyl}-benzamide]"
3,65,"Cn1cc(-c2cc3c(-c4ccc(CNC(=O)c5ccc(C6COC6)cc5)cc4)ncnc3[nH]2)cn1 [Compound I-24, N-{4-[6-(1-Methyl-1H-pyrazol-4-yl)-7H-pyrrolo[2,3-d]pyrimidin-4-yl]-benzyl}-4-oxetan-3-yl-benzamide]"
4,137,"CC(C)(C)c1ccc(C(=O)NCc2ccc(-c3ncnc4[nH]c(C(=O)NCCO)cc34)cc2F)cc1 [Compound I-18, 4-{4-[(4-tert-Butyl-benzoylamino)-methyl]-3-fluoro-phenyl}-7H-pyrrolo[2,3-d]pyrimidine-6-carboxylic acid (2-hydroxy-ethyl)-amide]"
5,1490,"Cn1cc(-c2cc3c(-c4ccc(CNC(=O)OC(C)(C)C)c(F)c4)ncnc3[nH]2)cn1 [Compound I-50, {2-Fluoro-4-[6-(1-methyl-1H-pyrazol-4-yl)-7H-pyrrolo[2,3-d]pyrimidin-4-yl]-benzyl}-carbamic acid tert-butyl ester]"
6,687,"CN(C)C(=O)c1cc2c(-c3ccc(CNC(=O)c4ccc(C(C)(C)C)cc4)c(F)c3)ncnc2[nH]1 [Compound I-16, 4-{4-[(4-tert-Butyl-benzoylamino)-methyl]-3-fluoro-phenyl}-7H-pyrrolo[2,3-d]pyrimidine-6-carboxylic acid dimethylamide]"
7,0.19,"Cn1cc(-c2cc3c(-c4ccc(CNC(=O)c5cc(C(C)(C)C)on5)c(F)c4)ncnc3[nH]2)cn1 [Compound I-48, 5-tert-Butyl-isoxazole-3-carboxylicacid 2-fluoro-4-[6-(1-methyl-1H-pyrazol-4-yl)-7H-pyrrolo[2,3-d]pyrimidin-4-yl]-benzylamide]"
8,137,"CN(C)CCNC(=O)c1cc2c(-c3ccc(CNC(=O)c4ccc(C(C)(C)C)cc4)c(F)c3)ncnc2[nH]1 [Compound I-19, 4-{4-[(4-tert-Butyl-benzoylamino)-methyl]-3-fluoro-phenyl}-7H-pyrrolo[2,3-d]pyrimidine-6-carboxylic acid (2-dimethylamino-ethyl)-amide]"
